We go through one molecule from ChEMBL document CHEMBL4342480, “Design of Dual Inhibitors of Soluble Epoxide Hydrolase and LTA4 Hydrolase” (ACS Med Chem Lett, 2020).

What all share (assay type): functional
Experiment [1] has as its system Macrophage. The experiment can be described thus: Antiinflammatory activity in Escherichia coli O6:K2:H1-induced human M1 macrophage assessed as change in PGE2 level at 1 uM preincubated for 10 mins followed by Escherichia coli O6:K2:H1-stimulation and measured after 180 mins by UPLC-MS/MS analysis relative to control.
For experiment [2], the system named is Macrophage. The experiment is described as follows: Antiinflammatory activity in Escherichia coli O6:K2:H1-induced human M1 macrophage assessed as change in PGF2alpha level at 1 uM preincubated for 10 mins followed by Escherichia coli O6:K2:H1-stimulation and measured after 180 mins by UPLC-MS/MS analysis relative to control.
For experiment [3], the system named is Macrophage. The experiment is described as follows: Antiinflammatory activity in Escherichia coli O6:K2:H1-induced human M1 macrophage assessed as change in […] level at 1 uM preincubated for 10 mins followed by Escherichia coli O6:K2:H1-stimulation and measured after 180 mins by UPLC-MS/MS analysis relative to control.
The subject of experiment [4] is Macrophage. The experiment can be described thus: Antiinflammatory activity in Escherichia coli O6:K2:H1-induced human M1 macrophage assessed as change in 14-HDHA level at 10 uM preincubated for 10 mins followed by Escherichia coli O6:K2:H1-stimulation and measured after 180 mins by UPLC-MS/MS analysis relative to control.
For experiment [5], the system named is Macrophage. The experiment is described as follows: Antiinflammatory activity in Escherichia coli O6:K2:H1-induced human M1 macrophage assessed as change in PGD2 level at 10 uM preincubated for 10 mins followed by Escherichia coli O6:K2:H1-stimulation and measured after 180 mins by UPLC-MS/MS analysis relative to control.
The test system of experiment [6] is Macrophage. The experiment is described as follows: Antiinflammatory activity in Escherichia coli O6:K2:H1-induced human M1 macrophage assessed as change in LTB4 level at 10 uM preincubated for 10 mins followed by Escherichia coli O6:K2:H1-stimulation and measured after 180 mins by UPLC-MS/MS analysis relative to control.
Experiment [7] concerns Macrophage. The experiment can be described thus: Antiinflammatory activity in Escherichia coli O6:K2:H1-induced human M2 macrophage assessed as change in LTB4 level at 1 uM preincubated for 10 mins followed by Escherichia coli O6:K2:H1-stimulation and measured after 180 mins by UPLC-MS/MS analysis relative to control.
The subject of experiment [8] is Macrophage. The experiment can be described thus: Antiinflammatory activity in Escherichia coli O6:K2:H1-induced human M2 macrophage assessed as change in 12-HETE level at 10 uM preincubated for 10 mins followed by Escherichia coli O6:K2:H1-stimulation and measured after 180 mins by UPLC-MS/MS analysis relative to control.
In experiment [9] the test system is Macrophage. The experiment is described as follows: Antiinflammatory activity in Escherichia coli O6:K2:H1-induced human M2 macrophage assessed as change in 7-HDHA level at 10 uM preincubated for 10 mins followed by Escherichia coli O6:K2:H1-stimulation and measured after 180 mins by UPLC-MS/MS analysis relative to control.
In experiment [10] the test system is Macrophage. The experiment can be described thus: Antiinflammatory activity in Escherichia coli O6:K2:H1-induced human M2 macrophage assessed as change in […] level at 10 uM preincubated for 10 mins followed by Escherichia coli O6:K2:H1-stimulation and measured after 180 mins by UPLC-MS/MS analysis relative to control.
In experiment [11] the test system is Macrophage. The experiment can be described thus: Antiinflammatory activity in Escherichia coli O6:K2:H1-induced human M2 macrophage assessed as change in LTB4 level at 10 uM preincubated for 10 mins followed by Escherichia coli O6:K2:H1-stimulation and measured after 180 mins by UPLC-MS/MS analysis relative to control.

Consider `O=C(Cc1ccc(Oc2nc3ccccc3s2)cc1F)NCCc1ccc(F)cc1`, for which the Activity in the experiment with Macrophage [1] was determined as 109%; in the experiment with Macrophage [2], 94%; with Macrophage [3] it was 134%; with Macrophage [4], 114%; in the experiment with Macrophage [5], 97%; in the experiment on Macrophage [6] it was 11%. For the same molecule, the Activity with Macrophage [7] turned out to be 72%; in the experiment on Macrophage [8], 114%; with Macrophage [9], 77%; in the experiment on Macrophage [10], 26%; in the experiment with Macrophage [11], 23%.
